What was measured:
Format in all cases: in vivo
Spodoptera littoralis = Spodoptera littoralis (Egyptian cotton leaf worm) leaf disc test; conditions: foliar, 72 h, application rate 200 ppm, cotton leaf discs sprayed, L1 larvae, 3 days after infestation, read-out: control (at least one of mortality, anti-feedant effect, growth inhibition)
Method: Spodoptera littoralis (Egyptian Cotton Leaf Worm)
Cotton leaf discs were placed on agar in 24-well microtiter plates and sprayed with aqueous test solutions prepared from 10′000 ppm DMSO stock solutions. After drying the leaf discs were infested with five L1 larvae. The samples were assessed for mortality, anti-feedant effect, and growth inhibition in comparison to untreated samples 3 days after infestation. Control of Spodoptera littoralis by a test sample is when at least one of mortality, anti-feedant effect, and growth inhibition is higher than the untreated sample.

Diabrotica Balteata = assay: Diabrotica balteata (corn root worm) maize sprout test; conditions: 96 h, application rate 200 ppm, maize sprouts sprayed, L2 larvae, 4 days after infestation, read-out: control (mortality and growth inhibition)
Method: Diabrotica Balteata, (Corn Root Worm)
Maize sprouts, placed on an agar layer in 24-well microtiter plates were treated with aqueous test solutions prepared from 10′000 ppm DMSO stock solutions by spraying. After drying, the plates were infested with L2 larvae (6 to 10 per well). The samples were assessed for mortality and growth inhibition in comparison to untreated samples 4 days after infestation.

Plutella xylostella = Plutella xylostella (diamond back moth) artificial diet test; conditions: 120 h, application rate 200 ppm, artificial diet, L2 larvae, 5 days after infestation, read-out: control (mortality and growth inhibition)
Method: Plutella xylostella (Diamond Back Moth):
24-well microtiter plates with artificial diet were treated with aqueous test solutions prepared from 10′000 ppm DMSO stock solutions by pipetting. After drying, the plates were infested with L2 larvae (10 to 15 per well). The samples were assessed for mortality and growth inhibition in comparison to untreated samples 5 days after infestation.

Myzus persicae = Myzus persicae (green peach aphid) leaf disc test; conditions: foliar, 144 h, application rate 200 ppm, sunflower leaf discs sprayed, mixed ages, 6 DAT, read-out: control (mortality)
Method: Myzus persicae (Green Peach Aphid):
Sunflower leaf discs were placed on agar in a 24-well microtiter plate and sprayed with test solutions at an application rate of 200 ppm. After drying, the leaf discs were infested with an aphid population of mixed ages. After an incubation period of 6 DAT, samples were checked for mortality.

Tetranychus urticae = Tetranychus urticae (two-spotted spider mite) leaf disc test; conditions: foliar, 192 h, application rate 200 ppm, bean leaf discs sprayed, 8 days after infestation, read-out: control (mortality on mixed population, mobile stages)
Method: Tetranychus urticae (Two-Spotted Spider Mite):
Bean leaf discs on agar in 24-well microtiter plates were sprayed with aqueous test solutions prepared from 10′000 ppm DMSO stock solutions. After drying the leaf discs were infested with a mite population of mixed ages. The samples were assessed for mortality on mixed population (mobile stages) 8 days after infestation.

Thrips tabaci = Thrips tabaci (onion thrips) leaf disc test; conditions: foliar, 144 h, application rate 200 ppm, sunflower leaf discs sprayed, mixed ages, 6 days after infestation, read-out: control (mortality)
Method: Thrips tabaci (Onion Thrips):
Sunflower leaf discs were placed on agar in 24-well microtiter plates and sprayed with aqueous test solutions prepared from 10′000 ppm DMSO stock solutions. After drying the leaf discs were infested with a thrips population of mixed ages. The samples were assessed for mortality 6 days after infestation.

Cn1nc(OS(=O)(=O)C(F)(F)C(F)(F)Cl)c(C(F)(F)F)c1-n1cc(-c2ccc(Cl)c(C(=O)NC3(C#N)CC3)c2)cn1 [Compound 8, [5-[4-[4-chloro-3-[(1-cyanocyclopropyl)carbamoyl]phenyl]pyrazol-1-yl]-1-methyl-4-(trifluoromethyl)pyrazol-3-yl] 2-chloro-1,1,2,2-tetrafluoro-ethanesulfonate]
≥ 80%: percent control (mortality, anti-feedant effect or growth inhibition) at 200 ppm (Spodoptera littoralis) | mortality at 200 ppm (Diabrotica Balteata) | mortality at 200 ppm (Plutella xylostella) | mortality at 200 ppm (Myzus persicae) | mortality at 200 ppm (Tetranychus urticae) | mortality at 200 ppm (Thrips tabaci)

CCN(C(=O)c1cc(-c2cnn(-c3c(C(F)(F)F)c(OS(=O)(=O)C(F)(F)C(F)(F)Cl)nn3C)c2)ccc1Cl)C1CC1 [Compound 10, [5-[4-[4-chloro-3-[cyclopropyl(ethyl)carbamoyl]phenyl]pyrazol-1-yl]-1-methyl-4-(trifluoromethyl)pyrazol-3-yl] 2-chloro-1,1,2,2-tetrafluoro-ethanesulfonate]
≥ 80%: percent control (mortality, anti-feedant effect or growth inhibition) at 200 ppm (Spodoptera littoralis) | mortality at 200 ppm (Diabrotica Balteata) | mortality at 200 ppm (Plutella xylostella) | mortality at 200 ppm (Myzus persicae) | mortality at 200 ppm (Tetranychus urticae) | mortality at 200 ppm (Thrips tabaci)

CN(C(=O)c1cc(-c2cnn(-c3c(C(F)(F)F)c(OS(=O)(=O)C(F)(C(F)(F)F)C(F)(F)F)nn3C)c2)ccc1Cl)C1CC1 [Compound 17, [5-[4-[4-chloro-3-[cyclopropyl(methyl)carbamoyl]phenyl]pyrazol-1-yl]-1-methyl-4-(trifluoromethyl)pyrazol-3-yl] 1,1,1,2,3,3,3-heptafluoropropane-2-sulfonate]
≥ 80%: percent control (mortality, anti-feedant effect or growth inhibition) at 200 ppm (Spodoptera littoralis) | mortality at 200 ppm (Diabrotica Balteata) | mortality at 200 ppm (Plutella xylostella) | mortality at 200 ppm (Myzus persicae) | mortality at 200 ppm (Tetranychus urticae) | mortality at 200 ppm (Thrips tabaci)

CN(C(=O)c1cc(-c2cnn(-c3c(C(F)(F)F)c(OS(=O)(=O)C(F)(F)C(F)(F)Cl)nn3C)c2)ccc1Cl)C1(C#N)CC1 [Compound 19, [5-[4-[4-chloro-3-[(1-cyanocyclopropyl)-methyl-carbamoyl]phenyl]pyrazol-1-yl]-1-methyl-4-(trifluoromethyl)pyrazol-3-yl] 2-chloro-1,1,2,2-tetrafluoro-ethanesulfonate]
≥ 80%: percent control (mortality, anti-feedant effect or growth inhibition) at 200 ppm (Spodoptera littoralis) | mortality at 200 ppm (Diabrotica Balteata) | mortality at 200 ppm (Plutella xylostella) | mortality at 200 ppm (Myzus persicae) | mortality at 200 ppm (Tetranychus urticae) | mortality at 200 ppm (Thrips tabaci)

CCN(C(=O)c1cc(-c2cnn(-c3c(C(F)(F)F)c(OS(=O)(=O)C(F)(C(F)(F)F)C(F)(F)F)nn3C)c2)cnc1Cl)C1CC1 [Compound 23, [5-[4-[6-chloro-5-[cyclopropyl(ethyl)carbamoyl]-3-pyridyl]pyrazol-1-yl]-1-methyl-4-(trifluoromethyl)pyrazol-3-yl] 1,1,1,2,3,3,3-heptafluoropropane-2-sulfonate]
≥ 80%: percent control (mortality, anti-feedant effect or growth inhibition) at 200 ppm (Spodoptera littoralis) | mortality at 200 ppm (Diabrotica Balteata) | mortality at 200 ppm (Plutella xylostella) | mortality at 200 ppm (Myzus persicae) | mortality at 200 ppm (Tetranychus urticae)

Cn1nc(OS(=O)(=O)C(F)(C(F)(F)F)C(F)(F)F)c(C(F)(F)F)c1-n1cc(-c2ccc(Cl)c(C(=O)NC3(C(F)F)CC3)c2)cn1 [Compound 64, [5-[4-[4-chloro-3-[[1-(difluoromethyl)cyclopropyl]carbamoyl]phenyl]pyrazol-1-yl]-1-methyl-4-(trifluoromethyl)pyrazol-3-yl] 1,1,1,2,3,3,3-heptafluoropropane-2-sulfonate]
≥ 80%: percent control (mortality, anti-feedant effect or growth inhibition) at 200 ppm (Spodoptera littoralis) | mortality at 200 ppm (Plutella xylostella) | mortality at 200 ppm (Myzus persicae) | mortality at 200 ppm (Tetranychus urticae)
